Active and inactive are the calls of the source. No cut-off for these calls is given here.
system: Candida; experiment: Antifungal activity against Candida at 100 ug/mL; format: functional, organism-based

`CCCCCCCCCCCCCCC(=O)O[C@H]1CC[C@H](NC(=O)[C@H](OC)[C@H](O)[C@@H](O)[C@H](O)/C=C/C(C)C)C(=O)N(C)C1` was tested. Which Activity did it give?
Its Activity is “inactive”.

With `CCCCCCCCCCCCCC(=O)O[C@H]1CC[C@H](NC=O)C(=O)N(C)C1` as the molecule, how does the Activity read?
The Activity was “inactive”.

Which Activity does the source give for `CCCCCCCCCCCCC(=O)O[C@H]1CC[C@H](NC(=O)[C@H](OC)[C@H](O)[C@@H](O)[C@H](O)/C=C/C(C)C)C(=O)NC1` here?
Its Activity is “inactive”.

`CCCCCCCCCCCCC(=O)O[C@H]1CC[C@H](NC(=O)[C@H](OC)[C@H](O)[C@@H](O)[C@H](O)/C=C/C(C)C)C(=O)N(C)C1` was tested. Which Activity did it give?
Its Activity is “inactive”.

With `CCCCCCCCCCCCCC(=O)O[C@H]1CC[C@H](NC(=O)[C@H](OC)[C@H](O)[C@@H](O)[C@H](O)/C=C/C(C)C)C(=O)NC1` as the molecule, how does the Activity read?
The Activity was “inactive”.

For `CO[C@H]1C(=O)O[C@@H]([C@H](O)/C=C/C(C)C)[C@H]1O`, which Activity is on record?
Its Activity is “inactive”.

For `CCCCCCCCCCCCCCC(=O)O[C@H]1CC[C@H](NC(=O)[C@H](OC)[C@H](O)[C@@H](O)[C@H](O)/C=C/C(C)C)C(=O)NC1`, which Activity is on record?
Its Activity is “inactive”.

`CCCCCCCCCCCCCC(=O)O[C@H]1CC[C@H](NC(=O)[C@H](OC)[C@H](O)[C@@H](O)[C@H](O)/C=C/C(C)C)C(=O)N(C)C1` was tested. Which Activity did it give?
The Activity was “inactive”.
